Earlier results on 3 compounds are cited in patent US20140107050A1, “INCREASING BIOAVAILABILITY OF N-COUMAROYLDOPAMINE THROUGH CO-ADMINISTRATION WITH A CATECHOL-O-[…] (COMT) INHIBITOR” (Redefine Nutrition, LLC, priority 2012, published 2014).

The structures appear in SMILES notation. pIC50: −log10 of the molar value.

In data set [1] the target is T1, beta-adrenoreceptor (Homo sapiens, UniProt P07550).
T1 construct: increase cAMP via beta 2-adrenoreceptors in myelocytic U937 cells; endogenous in cells; host or cells: U937 cells
T1 sequence (P07550 whole entry): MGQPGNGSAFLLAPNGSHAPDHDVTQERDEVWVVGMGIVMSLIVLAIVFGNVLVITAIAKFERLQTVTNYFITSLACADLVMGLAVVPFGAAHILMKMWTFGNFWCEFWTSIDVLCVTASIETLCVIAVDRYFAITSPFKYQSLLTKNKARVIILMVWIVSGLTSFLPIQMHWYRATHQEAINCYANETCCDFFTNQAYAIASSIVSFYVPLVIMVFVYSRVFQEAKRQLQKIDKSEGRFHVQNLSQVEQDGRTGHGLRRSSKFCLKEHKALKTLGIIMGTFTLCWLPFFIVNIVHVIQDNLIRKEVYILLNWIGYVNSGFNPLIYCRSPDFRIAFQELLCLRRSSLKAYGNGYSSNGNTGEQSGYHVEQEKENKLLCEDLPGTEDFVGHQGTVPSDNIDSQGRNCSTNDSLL
The settings on record: recent in vitro studies (Park 2005).

Data set [2] has as its target T2, catechol-o-methyltransferase (COMT) (Homo sapiens, UniProt P21964).
T2 sequence (P21964 1-271): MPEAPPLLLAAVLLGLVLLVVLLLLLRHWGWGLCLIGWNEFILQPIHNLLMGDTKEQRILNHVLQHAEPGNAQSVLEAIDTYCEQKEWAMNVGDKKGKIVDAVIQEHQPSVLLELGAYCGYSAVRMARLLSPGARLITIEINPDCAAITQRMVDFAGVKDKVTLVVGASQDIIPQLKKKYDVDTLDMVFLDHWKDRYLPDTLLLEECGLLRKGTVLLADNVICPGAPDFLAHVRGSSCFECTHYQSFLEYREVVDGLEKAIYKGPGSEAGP
The settings on record: values taken from cited literature; read-out: half maximal inhibitory concentration (IC50) for COMT inhibition.

With `O=C(/C=C/c1ccc(O)cc1)NCCc1ccc(O)c(O)c1` [N-coumaroyldopamine], the beta-adrenoreceptor agonist activity entry in data set [1] is listed as “acts as a beta-adrenoreceptor agonist”.

As for `O=c1c(O)c(-c2ccc(O)c(O)c2)oc2cc(O)cc(O)c12` [quercetin], the pIC50 in data set [2] is around 6.30.

Turning to `O=C(/C=C/c1ccc(O)c(O)c1)O[C@@H]1C[C@](O)(C(=O)O)C[C@@H](O)[C@H]1O` [chlorogenic acid], the pIC50 in data set [2] is 5.85 to 5.89.
